In patent publication US8003649B2 (AstraZeneca AB, priority 2007, dated 2011):

The compounds below were run against T1, Androgen Receptor (AR) (Homo sapiens, UniProt P10275, T878A) (assay: LNCaP Androgen Receptor Down-regulation Cell Assay (immunofluorescence end point)). Conditions: LNCaP prostate carcinoma cells, compound incubation 20-22 hours, 50% reduction of the AR signal; read-out: Androgen Receptor Down-regulation Assay (a) IC50/μM.
T1 construct: cell based immuno-fluorescence assay using the LNCaP prostate epithelial cell line; endogenous in cells; host or cells: LNCaP clone FGC (ATCC CRL-1740)
T1 sequence (P10275 1-920 T878A): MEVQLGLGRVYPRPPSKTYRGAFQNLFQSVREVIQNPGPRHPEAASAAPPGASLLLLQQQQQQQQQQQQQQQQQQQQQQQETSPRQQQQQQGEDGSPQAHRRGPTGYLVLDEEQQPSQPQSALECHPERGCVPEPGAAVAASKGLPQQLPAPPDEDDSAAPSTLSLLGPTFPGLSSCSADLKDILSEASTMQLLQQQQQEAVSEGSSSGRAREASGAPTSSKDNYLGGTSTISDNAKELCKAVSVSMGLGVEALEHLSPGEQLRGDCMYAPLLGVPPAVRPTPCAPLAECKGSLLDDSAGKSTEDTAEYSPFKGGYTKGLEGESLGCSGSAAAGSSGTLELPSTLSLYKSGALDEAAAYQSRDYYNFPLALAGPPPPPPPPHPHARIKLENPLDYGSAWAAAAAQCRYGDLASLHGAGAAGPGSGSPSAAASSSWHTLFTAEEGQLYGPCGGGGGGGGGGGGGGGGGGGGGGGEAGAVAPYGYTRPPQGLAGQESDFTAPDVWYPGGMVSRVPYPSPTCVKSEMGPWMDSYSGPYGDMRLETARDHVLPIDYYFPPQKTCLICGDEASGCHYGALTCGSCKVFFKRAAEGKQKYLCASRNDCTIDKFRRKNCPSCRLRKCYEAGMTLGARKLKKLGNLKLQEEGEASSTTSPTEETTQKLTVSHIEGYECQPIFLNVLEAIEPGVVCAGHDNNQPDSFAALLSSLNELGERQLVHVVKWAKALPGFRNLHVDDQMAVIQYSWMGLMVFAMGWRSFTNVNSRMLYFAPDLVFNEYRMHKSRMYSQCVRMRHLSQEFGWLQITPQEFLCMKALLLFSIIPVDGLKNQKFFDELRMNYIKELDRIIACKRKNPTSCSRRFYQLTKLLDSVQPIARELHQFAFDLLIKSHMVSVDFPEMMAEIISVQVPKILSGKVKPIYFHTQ
Assay type: cell-based
Method: The ability of compounds to reduce Androgen Receptor (AR) numbers was assessed in a cell based immuno-fluorescence assay using the LNCaP prostate epithelial cell line.
a) LNCaP Androgen Receptor Down-regulation Cell Assay
A 5 ml volume of Growth Medium was added to each flask (as above except that 5% (v/v) charcoal stripped FBS (HyClone Code no. SH30068.03) was included instead of 10% (v/v) FBS). Cells were syringed at least twice using a sterile 18G×1.5″ (1.2×40 mm) broad gauge needle and cell density was measured using a haemocytometer.
Test data reported herein was generated using two different compounds preparation and dosing methods. In method (1) a 10 mM compound stock solution in 100% (v/v) DMSO was serially diluted in 4-fold steps in 100% (v/v) DMSO using a Thermo Scientific Matrix SerialMate. The diluted compounds were then further diluted 1 in 30 in assay media using a Thermo Scientific Matrix PlateMate and a 10 μl aliquot of this dilution was dosed to cells manually using a multi-channel pipette. In method (2) starting with a 10 mM compound stock solution, the Labcyte Echo 550 was used to generate a compound concentration response set diluted in 30 μl of assay media. The Echo 550 is a liquid handler that uses acoustic technology to perform direct microplate-to-microplate transfers of DMSO compound solutions. The system can be programmed to transfer volumes as low as […] in multiple increments between microplates and in so doing generates a serial dilution of compound which is then back-filled to normalise the DMSO concentration across the dilution range. A 10 μl volume of diluted compound is then dosed to cells using a Thermo Scientific Matrix PlateMate.
Plates were incubated overnight at 37° C., 5% CO2. Wells were then dosed with compound prepared by one of the 2 methods above and further incubated for 20-22 hours at 37° C., 5% CO2. […] This fixative solution was removed and cells were washed with 250 μl of PBS/0.05% (v/v) Tween 20 (PBST) using an automated plate washer. This process was then repeated twice more.
Immunostaining was performed at room temperature. Cells were permeabilised by the addition of 35 μl of PBS containing 0.5% Tween 20 and incubated for 1 hour at room temperature. Permeabilisation solution was removed and cells were washed with 250 μl of PBST using an automated plate washer. This process was then repeated twice more. 35 μl of Blocking Solution (PBST containing 3% (w/v) Marvel dried skimmed milk (Nestle)) was added to each well and plates were incubated at room temperature for a minimum of 1 hour. […] Then this primary antibody solution was removed from the wells followed by 3×100 μl PBST washes using a plate washer. […] Henceforth, wherever possible, plates were protected from light exposure. The plates were incubated for 1 hour and then the secondary antibody solution was removed from the wells followed by 3×100 ul PBST washes using a plate washer. Then 50 μl of PBST was added to each well and plates were covered with a black plate seal and stored at 4° C. before being read. Plates were read within six hours of completing the immunostaining.
The Green Fluorescent AR-associated signal in each well was measured using an Acumen Explorer HTS Reader (TTP Labtech Ltd., Cambridge). […] The instrument is a laser-scanning fluorescence microplate cytometer which samples the well at regular intervals and uses threshold algorithms to identify all fluorescent intensities above the solution background without the need to generate and analyse an image. These fluorescent objects can be quantified and provide a measure of the AR levels in cells. Fluorescence dose response data obtained with each compound was exported into a suitable software package (such as Origin) to perform curve fitting analysis. Down-regulation of AR levels was expressed as an IC50 value.
Work on `FC(F)(F)c1cnc(N2CCCN(c3ccc4nnc(C(F)(F)F)n4n3)CC2)c(Cl)c1` [Example 30, 6-[4-[3-chloro-5-(trifluoromethyl)pyridin-2-yl]-1,4-diazepan-1-yl]-3-(trifluoromethyl)-[1,2,4]triazolo[4,3-b]pyridazine] yielded a DC50 of 0.38 µM. `COc1nccc(-c2c(-c3ccc(F)cc3)ncn2C2CCN(c3ccc4nnc(C(F)(F)F)n4n3)CC2)n1` [Example 31, 6-[4-[4-(4-fluorophenyl)-5-(2-methoxypyrimidin-4-yl)imidazol-1-yl]piperidin-1-yl]-3-(trifluoromethyl)-[1,2,4]triazolo[4,3-b]pyridazine] gave a DC50 of 2.1 µM. `Cc1ccccc1N1CCN(c2ccc3nnc(C(F)(F)F)n3n2)CC1` [Example 32, 6-[4-(2-methylphenyl)piperazin-1-yl]-3-(trifluoromethyl)-[1,2,4]triazolo[4,3-b]pyridazine] gave a DC50 of 1.6 µM. Compound `FC(F)(F)c1nnc2ccc(N3CCCN(Cc4ccccc4Cl)CC3)nn12` [Example 33, 6-[4-[(2-chlorophenyl)methyl]-1,4-diazepan-1-yl]-3-(trifluoromethyl)-[1,2,4]triazolo[4,3-b]pyridazine] has a DC50 of 0.68 µM. `CCCC(=O)N1CC2CN(c3ccc4nnc(C(F)(F)F)n4n3)CC2C1` (centres unmarked) [Example 34, 1-[2-[3-(trifluoromethyl)-[1,2,4]triazolo[4,3-b]pyridazin-6-yl]-1,3,3a,4,6,6a-hexahydropyrrolo[3,4-c]pyrrol-5-yl]butan-1-one] gave a DC50 of 20 µM. With `CC(C)(C)OC(=O)N1[C@@H]2CC[C@H]1CN(c1ccc3nnc(C(F)(F)F)n3n1)C2` [Example 35, tert-butyl (1S,5R)-3-[3-(trifluoromethyl)-[1,2,4]triazolo[4,3-b]pyridazin-6-yl]-3,8-diazabicyclo[3.2.1]octane-8-carboxylate] the DC50 was 3 µM. `Cc1cccc(N2CCN(c3ccc4nnc(C(F)(F)F)n4n3)CC2)c1` [Example 36, 6-[4-(3-methylphenyl)piperazin-1-yl]-3-(trifluoromethyl)-[1,2,4]triazolo[4,3-b]pyridazine] showed a DC50 of 0.99 µM. In the case of `FC(F)(F)c1nnc2ccc(N3CCN(c4ccccc4Cl)CC3)nn12` [Example 37, 6-[4-(2-chlorophenyl)piperazin-1-yl]-3-(trifluoromethyl)-[1,2,4]triazolo[4,3-b]pyridazine], the DC50 is reported as 1.4 µM. Compound `O=C1OCc2ccccc2N1C1CCN(c2ccc3nnc(C(F)(F)F)n3n2)CC1` [Example 39, 1-[1-[3-(trifluoromethyl)-[1,2,4]triazolo[4,3-b]pyridazin-6-yl]piperidin-4-yl]-4H-3,1-benzoxazin-2-one] has a DC50 of 5 µM. `O=C1CCc2ccccc2N1C1CCN(c2ccc3nnc(C(F)(F)F)n3n2)CC1` [Example 40, 1-[1-[3-(trifluoromethyl)-[1,2,4]triazolo[4,3-b]pyridazin-6-yl]piperidin-4-yl]-3,4-dihydroquinolin-2-one] showed a DC50 of 3.3 µM. `N#Cc1cccc(CN2CCN(c3ccc4nnc(C(F)(F)F)n4n3)CC2)c1` [Example 43, 3-[[4-[3-(trifluoromethyl)-[1,2,4]triazolo[4,3-b]pyridazin-6-yl]piperazin-1-yl]methyl]benzonitrile] was tested, and the DC50 was 1.5 µM. With `Cc1ccc(CN2CCN(c3ccc4nnc(C(F)(F)F)n4n3)CC2)cc1` [Example 47, 6-[4-[(4-methylphenyl)methyl]piperazin-1-yl]-3-(trifluoromethyl)-[1,2,4]triazolo[4,3-b]pyridazine] the DC50 was 1.5 µM. With `FC(F)(F)c1nnc2ccc(N3CCN(Cc4nc5ccccc5s4)CC3)nn12` [Example 48, 6-[4-(1,3-benzothiazol-2-ylmethyl)piperazin-1-yl]-3-(trifluoromethyl)-[1,2,4]triazolo[4,3-b]pyridazine] the DC50 was 1.5 µM. `FC(F)(F)c1nnc2ccc(N3CCN(Cc4nc5ccccc5o4)CC3)nn12` [Example 49, 6-[4-(1,3-benzoxazol-2-ylmethyl)piperazin-1-yl]-3-(trifluoromethyl)-[1,2,4]triazolo[4,3-b]pyridazine] showed a DC50 of 3.2 µM. `FC(F)(F)c1nnc2ccc(N3CCN(Cc4ccnc5ccccc45)CC3)nn12` [Example 50, 4-[[4-[3-(trifluoromethyl)-[1,2,4]triazolo[4,3-b]pyridazin-6-yl]piperazin-1-yl]methyl]quinoline] gave a DC50 of 1.4 µM. `FC(F)(F)c1nnc2ccc(N3CCN(Cc4nccs4)CC3)nn12` [Example 51, 6-[4-(1,3-thiazol-2-ylmethyl)piperazin-1-yl]-3-(trifluoromethyl)-[1,2,4]triazolo[4,3-b]pyridazine] showed a DC50 of 8.4 µM. Work on `FC(F)(F)c1nnc2ccc(N3CCN(Cc4csnn4)CC3)nn12` [Example 53, 6-[4-(thiadiazol-4-ylmethyl)piperazin-1-yl]-3-(trifluoromethyl)-[1,2,4]triazolo[4,3-b]pyridazine] yielded a DC50 of 7.9 µM. For `Cn1c(CN2CCN(c3ccc4nnc(C(F)(F)F)n4n3)CC2)nc2ccccc21` [Example 54, 6-[4-[(1-methylbenzimidazol-2-yl)methyl]piperazin-1-yl]-3-(trifluoromethyl)-[1,2,4]triazolo[4,3-b]pyridazine], the DC50 was 6.7 µM. In the case of `FC(F)(F)c1nnc2ccc(N3CCN(Cc4cnccn4)CC3)nn12` [Example 55, 6-[4-(pyrazin-2-ylmethyl)piperazin-1-yl]-3-(trifluoromethyl)-[1,2,4]triazolo[4,3-b]pyridazine], the DC50 is reported as 8.8 µM. `FC(F)(F)c1nnc2ccc(N3CCN(Cc4ccc5ccccc5n4)CC3)nn12` [Example 56, 2-[[4-[3-(trifluoromethyl)-[1,2,4]triazolo[4,3-b]pyridazin-6-yl]piperazin-1-yl]methyl]quinoline] showed a DC50 of 2.1 µM. `CS(=O)(=O)c1ccccc1CN1CCN(c2ccc3nnc(C(F)(F)F)n3n2)CC1` [Example 57, 6-[4-[(2-methylsulfonylphenyl)methyl]piperazin-1-yl]-3-(trifluoromethyl)-[1,2,4]triazolo[4,3-b]pyridazine] was tested, and the DC50 was 4.3 µM. With `N#Cc1ccccc1CN1CCN(c2ccc3nnc(C(F)(F)F)n3n2)CC1` [Example 59, 2-[[4-[3-(trifluoromethyl)-[1,2,4]triazolo[4,3-b]pyridazin-6-yl]piperazin-1-yl]methyl]benzonitrile] the DC50 was 2.7 µM. In the case of `FC(F)(F)c1nnc2ccc(N3CCN(Cc4csc5ccccc45)CC3)nn12` [Example 60, 6-[4-(1-benzothiophen-3-ylmethyl)piperazin-1-yl]-3-(trifluoromethyl)-[1,2,4]triazolo[4,3-b]pyridazine], the DC50 is reported as 0.61 µM.
